Assay results reported in the NIST ThermoML archive (doi:10.1021/je034102r).

Test: molar heat capacity at constant pressure
Conditions: 101.33 kPa, Liquid, heat bridge-scanning calorimeter

CCCCn1cc[n+](C)c1.F[P-](F)(F)(F)(F)F [1-butyl-3-methylimidazolium hexafluorophosphate]
Conditions | molar heat capacity at constant pressure [J/K/mol]
326.94 K | 426.56
327.06 K | 426.56
327.19 K | 426.56
327.31 K | 426.56
327.44 K | 426.84
327.72 K | 427.13
327.85 K | 427.13
327.98 K | 427.13
328.1 K | 427.13
328.23 K | 427.41
328.35 K | 427.41
328.48 K | 427.41
328.61 K | 427.41
328.73 K | 427.41
328.99 K | 427.69
329.11 K | 427.69
329.24 K | 427.98
329.37 K | 427.69
329.49 K | 427.98
329.62 K | 427.98
329.74 K | 428.26
329.87 K | 428.26
330 K | 428.26
330.12 K | 427.98
330.25 K | 428.26
330.52 K | 428.55
330.65 K | 428.55
330.77 K | 428.55
330.9 K | 428.55
331.03 K | 428.55
331.15 K | 428.55
331.28 K | 428.83
331.4 K | 429.12
331.53 K | 429.12
331.79 K | 429.12
331.91 K | 429.12
332.04 K | 429.12
332.16 K | 429.12
332.29 K | 429.12
332.42 K | 429.4
332.54 K | 429.4
332.67 K | 429.4
332.79 K | 429.4
332.92 K | 429.4
333.05 K | 429.4
333.32 K | 429.68
333.45 K | 429.68
333.58 K | 429.97
333.71 K | 429.97
333.83 K | 429.97
333.96 K | 429.97
334.08 K | 429.97
334.21 K | 429.97
334.34 K | 429.97
334.59 K | 430.25
334.72 K | 430.25
334.84 K | 430.25
334.97 K | 430.25
335.1 K | 430.54
335.22 K | 430.54
335.35 K | 430.54
335.47 K | 430.54
335.6 K | 430.82
335.73 K | 430.82
335.85 K | 430.82
336.12 K | 431.1
336.25 K | 430.82
336.38 K | 430.82
336.5 K | 431.1
336.63 K | 431.1
336.75 K | 431.1
336.88 K | 431.39
337.01 K | 431.39
337.13 K | 431.39
337.39 K | 431.39
337.51 K | 431.39
337.64 K | 431.39
337.76 K | 431.39
337.89 K | 431.67
338.02 K | 431.67
338.14 K | 431.96
338.27 K | 431.96
338.39 K | 431.96
338.52 K | 432.24
338.64 K | 432.24
338.91 K | 432.24
339.04 K | 432.53
339.17 K | 432.53
339.29 K | 432.53
339.43 K | 432.81
339.55 K | 432.81
339.68 K | 432.81
339.8 K | 432.81
339.93 K | 433.09
340.19 K | 433.09
340.31 K | 433.38
340.44 K | 433.38
340.56 K | 433.38
340.69 K | 433.38
340.82 K | 433.66
340.94 K | 433.66
341.07 K | 433.66
341.19 K | 433.66
341.32 K | 433.95
341.45 K | 433.95
341.72 K | 434.23
341.85 K | 434.23
341.97 K | 434.23
342.1 K | 434.23
342.22 K | 434.23
342.35 K | 434.51
342.48 K | 434.51
342.6 K | 434.51
342.73 K | 434.51
343 K | 434.8
343.13 K | 434.8
343.25 K | 434.8
343.38 K | 435.08
343.51 K | 435.08
343.63 K | 435.08
343.76 K | 435.37
343.88 K | 435.37
344.01 K | 435.37
344.13 K | 435.37
344.26 K | 435.65
344.53 K | 435.94
344.66 K | 435.65
344.78 K | 435.94
344.91 K | 435.94
345.03 K | 435.94
345.16 K | 435.94
345.29 K | 436.22
345.42 K | 436.5
345.55 K | 436.22
345.82 K | 436.79
345.95 K | 436.5
346.07 K | 437.07
346.2 K | 436.79
346.32 K | 437.07
346.45 K | 437.07
346.57 K | 437.07
346.7 K | 437.07
346.82 K | 437.36
346.95 K | 437.36
347.08 K | 437.64
347.35 K | 437.36
347.47 K | 437.64
347.6 K | 437.64
347.72 K | 437.64
347.85 K | 437.93
347.97 K | 437.93
348.1 K | 437.93
348.22 K | 437.93
348.35 K | 438.21
348.63 K | 438.21
348.76 K | 438.21
348.88 K | 438.49
349.01 K | 438.21
349.13 K | 438.49
349.26 K | 438.49
349.38 K | 438.78
349.51 K | 438.78
349.63 K | 438.78
349.76 K | 438.78
349.88 K | 439.06
350.19 K | 439.35
350.32 K | 439.35
350.44 K | 439.35
350.57 K | 439.35
350.69 K | 439.63
350.82 K | 439.63
350.94 K | 439.63
351.07 K | 439.63
351.21 K | 439.35
351.49 K | 439.91
351.61 K | 439.63
351.74 K | 439.91
351.86 K | 440.2
351.99 K | 440.2
352.11 K | 440.2
352.24 K | 440.2
352.36 K | 440.48
352.49 K | 440.48
352.61 K | 440.48
352.74 K | 440.77
353.01 K | 440.77
353.13 K | 440.77
353.26 K | 441.05
353.38 K | 441.05
353.51 K | 441.34
353.64 K | 441.34
